Counter-ions that a name gives are not always drawn.
Key:
LC3 [1] = test: Autophagy activity in cultured cells by immunoblotting, treatment time (Experimental Example 3); format: cell-based, human; conditions: HeLa cells; 5 μM for 1, 3, 6, 12, 24, 48 hours or 10 μM for 24 hours; immunoblot, FIG. 4
Experimental: In order to investigate the autophagy activity efficacy by the compounds (Examples 1-25), immunoblotting was performed in the same manner as in Experimental Example 2 using LC3 as a marker. As for the difference, in order to evaluate the treatment time required for activation and the activity retention time, 5 μM of the representative compounds selected among the present compounds (Example 5 (YTK-1005), Example 6 (YTK-1205), Example 7 (YTK-1305), Example 2 (YTK-2205), Example 3 (YTK-3305), Example 14 (YTK-1108), Example 8 (YTK-105), Example 9 (YTK-205)) were treated for 1, 3, 6, 12, 24, 48 hours. On the other hand, 10 μM of the representative compounds selected among the present compounds (Example 10 (YT 5-1), Example 11 (YT 5-2), Example 16 (YT 8-8), Example 15 (YT 8-7), Example 17 (YTK-107), Example 18 (YTK-207), Example 20 (ATB10041), Example 21 (ATB10042), Example 22 (ATB10043), Example 23 (ATB10044), Example 24 (ATB10045), Example 25 (ATB10046)) were treated for 24 hours.

p62 protein = target: T1, p62 protein (Homo sapiens, UniProt Q13501); test: Oligomerization activity of p62 protein by immunoblotting (Experimental Example 1); format: cell-based; conditions: HEK293 cell lysate treated with test compounds at room temperature for 2 hours; immunoblot, FIG. 2
T1 construct: endogenous in cells; host or cells: HEK293 (lysate treated with compounds)
Description: In order to evaluate the p62 protein oligomerization activity efficacy by the compounds (Examples 1-25), HEK293 cell line, which is human embryonic kidney-derived cell, was collected. As the representative compounds among the present compounds, the compounds of Examples 1, 2, 3, 5, 6, 7, 8, 9, 12, and 13 (Example 10 (YT-5-1), Example 11 (YT-5-2), Example 12 (YT 5-7), Example 13 (YT 5-8), Example 15 (YT-8-7), Example 16 (YT-8-8), Example 17 (YTK-107), Example 18 ([…]), Example 20 (ATB10041), Example 21 (ATB10042), Example 22 (ATB10043), Example 23 (ATB10044), Example 24 (ATB10045) and Example 25 (ATB10046)) were selected. In order to measure intracellular p62 protein activation and oligomerization according to the treatment with these selected representative compounds, the respective cells were dispensed into a 100 pi dish. The cells were collected after further culturing for 24 hours so that the cells were completely attached to the surface of the plate. 100 ul of lysis buffer (20 mM Tris, pH 7.4), 150 mM NaCl, 1% Triton X-100, 2 mM NaF, 2 mM EDTA, 2 mM beta-glycerophosphate, 5 mM sodium orthovanadate, 1 mM PMSF, leupeptin, aprotinin) were injected into each sample and the cells were lysed. Based on the measured total protein concentration, each sample was treated with test compounds at room temperature for 2 hours, and then a sample buffer was added and allowed to react at 95° C. for 10 minutes. 25 ul was taken from the samples after the reaction, and dispensed into each well of acrylamide gel, and then immunoblotting was performed.

LC3 [2] = test: Autophagy activity of control compounds by immunoblotting (Experimental Example 4); format: cell-based, human; conditions: different concentrations and different times; immunoblot, FIG. 5
Experimental: In order to investigate the autophagy activity efficacy of control compounds, immunoblotting was performed in the same manner as in Experimental Example 2 by using LC3 as a marker. As the control compounds, compounds having the following structure were used.

T1 sequence (Q13501 whole entry): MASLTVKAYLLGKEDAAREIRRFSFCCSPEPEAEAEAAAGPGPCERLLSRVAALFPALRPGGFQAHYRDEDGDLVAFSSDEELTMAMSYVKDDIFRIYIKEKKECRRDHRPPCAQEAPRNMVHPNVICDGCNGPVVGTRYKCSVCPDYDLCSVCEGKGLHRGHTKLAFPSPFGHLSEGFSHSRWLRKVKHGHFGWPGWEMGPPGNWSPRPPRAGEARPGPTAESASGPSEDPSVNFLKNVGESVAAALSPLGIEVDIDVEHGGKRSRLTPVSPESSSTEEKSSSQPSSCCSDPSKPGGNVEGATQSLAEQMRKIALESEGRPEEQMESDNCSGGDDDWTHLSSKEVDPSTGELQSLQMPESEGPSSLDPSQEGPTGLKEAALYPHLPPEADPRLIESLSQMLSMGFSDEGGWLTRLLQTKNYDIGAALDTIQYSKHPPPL

| SMILES | autophagy activity (level of LC3) (LC3 [1]) | p62 protein oligomerization activity (monomer, oligomers and high-molecular aggregates) (p62 protein) | autophagy activity (level of LC3) of control compounds (LC3 [2]) |
| --- | --- | --- | --- |
| O=C(NCCO)NCc1ccc(OCc2ccccc2)c(OCc2ccccc2)c1 [ATB10041, 1-(3,4-bis(benzyloxy)benzyl)-3-(2-hydroxyethyl)urea] | increasing the autophagy activity | increasing the p62 protein oligomerization activity |  |
| O=C(CO)NCc1ccc(OCc2ccccc2)c(OCc2ccccc2)c1 [ATB10042, N-(3,4-bis(benzyloxy)benzyl)-2-hydroxyacetamide] | increasing the autophagy activity | increasing the p62 protein oligomerization activity |  |
| N[C@H](CNCc1ccc(OCc2ccccc2)c(OCc2ccccc2)c1)C(=O)O [ATB10043, (R)-2-amino-3-((3,4-bis(benzyloxy)benzyl)amino)propanoic acid] | increasing the autophagy activity | increasing the p62 protein oligomerization activity |  |
| NC(=O)CNCc1ccc(OCc2ccccc2)c(OCc2ccccc2)c1 [ATB10044, 2-((3,4-bis(benzyloxy)benzyl)amino)acetamide] | increasing the autophagy activity | increasing the p62 protein oligomerization activity |  |
| COc1cc(CNCCO)cc(OCc2ccccc2)c1OCc1ccccc1 [ATB10045, 2-((3,4-bis(benzyloxy)-5-methoxybenzyl)amino)ethan-1-ol] | increasing the autophagy activity | increasing the p62 protein oligomerization activity |  |
| OCCNCc1cc(Cl)c(OCc2ccccc2)c(OCc2ccccc2)c1 [ATB10046, 2-((3,4-bis(benzyloxy)-5-chlorobenzyl)amino)ethan-1-ol] | increasing the autophagy activity | increasing the p62 protein oligomerization activity |  |
| O=Cc1ccc(OCc2ccccc2)c(OCc2ccccc2)c1 [Example 1101, 3,4-bis(benzyloxy)benzaldehyde] |  |  | do not increase autophagy activity |
| Oc1ccc(OCc2ccccc2)c(OCc2ccccc2)c1 [Example 1102, 3,4-bis(benzyloxy)phenol] |  |  | do not increase autophagy activity |
| c1ccc(COc2ccc(OC[C@H]3CO3)cc2OCc2ccccc2)cc1 [Example 1103, (R)-2-((3,4-bis(benzyloxy)phenoxy)methyl)oxirane] |  |  | do not increase autophagy activity |
| O=Cc1ccc(OCc2ccccc2)c(OCCc2ccccc2)c1 [Example 1201, 4-(benzyloxy)-3-phenethoxybenzaldehyde] |  |  | do not increase autophagy activity |
| Oc1ccc(OCc2ccccc2)c(OCCc2ccccc2)c1 [Example 1202, 4-(benzyloxy)-3-phenethoxyphenol] |  |  | do not increase autophagy activity |
| c1ccc(CCOc2cc(OC[C@H]3CO3)ccc2OCc2ccccc2)cc1 [Example 1203, (R)-2-((4-(benzyloxy)-3-phenethoxyphenoxy)methyl)oxirane] |  |  | do not increase autophagy activity |
| O=Cc1ccc(OCc2ccccc2)c(OCCCc2ccccc2)c1 [Example 1301, 4-(benzyloxy)-3-(3-phenylpropoxy)benzaldehyde] |  |  | do not increase autophagy activity |
| Oc1ccc(OCc2ccccc2)c(OCCCc2ccccc2)c1 [Example 1302, 4-(benzyloxy)-3-(3-phenylpropoxy)phenol] |  |  | do not increase autophagy activity |
| O=Cc1ccc(OCc2ccccc2)c(OCCCCc2ccccc2)c1 [Example 1401, 4-(benzyloxy)-3-(4-phenylbutoxy)benzaldehyde] |  |  | do not increase autophagy activity |
| Oc1ccc(OCc2ccccc2)c(OCCCCc2ccccc2)c1 [Example 1402, 4-(benzyloxy)-3-(4-phenylbutoxy)phenol] |  |  | do not increase autophagy activity |
| O=Cc1ccc(OCCc2ccccc2)c(OCCc2ccccc2)c1 [Example 2201, 3,4-diphenethoxybenzaldehyde] |  |  | do not increase autophagy activity |
| Oc1ccc(OCCc2ccccc2)c(OCCc2ccccc2)c1 [Example 2202, 3,4-diphenethoxyphenol] |  |  | do not increase autophagy activity |
| Oc1ccc(OCCCCc2ccccc2)c(OCCCCc2ccccc2)c1 [Example 4402, 3,4-bis(4-phenylbutoxy)phenol] |  |  | do not increase autophagy activity |
| OCCCCc1ccc(OCc2ccccc2)c(OCc2ccccc2)c1 [YTK-1105-1, 4-(3,4-bis(benzyloxy)phenyl)butan-1-ol] |  |  | do not increase autophagy activity |
| OCCNCCNCc1ccc(OCc2ccccc2)c(OCc2ccccc2)c1 [YTK-HCl-1108, 2-((2-((3,4-bis(benzyloxy)benzyl)amino)ethyl)amino)ethan-1-ol] | increasing the autophagy activity |  |  |
| OCCNCc1ccc(OCc2ccccc2)c(OCCc2ccccc2)c1 [YTK-HCl-1205, 2-((4-(benzyloxy)-3-phenethoxybenzyl)amino)ethan-1-ol] | increasing the autophagy activity |  |  |
| OCCNCc1ccc(OCc2ccccc2)c(OCCCc2ccccc2)c1 [YTK-HCl-1305, 2-((4-(benzyloxy)-3-(3-phenylpropoxy)benzyl)amino)ethan-1-ol] | increasing the autophagy activity |  |  |
| OCCNCc1ccc(OCCc2ccccc2)c(OCCc2ccccc2)c1 [YTK-HCl-2205, 2-((3,4-diphenethoxybenzyl)amino)ethan-1-ol] | increasing the autophagy activity |  |  |
| OCCNCc1ccc(OCCCc2ccccc2)c(OCCCc2ccccc2)c1 [YTK-HCl-3305, 2-((3,4-bis(3-phenylpropoxy)benzyl)amino)ethan-1-ol] | increasing the autophagy activity |  |  |

Source: patent US12427346B2, “P62 ligand compound, and composition for preventing, ameliorating or treating proteinopathies comprising the same” (AUTOTAC INC., priority 2018, dated 2025)
